PMC11240257, “Engineered Methionine Adenosyltransferase Cascades for Metabolic Labeling of Individual DNA Methylomes in Live Cells” (Journal of the American Chemical Society, 2024)
Like-named read-outs stand apart in the source and are kept apart here.

Columns and labels:
Assay in all cases: HPLC-MS/MS quantitation of accumulated cofactor, steady state
Format in all cases: biochemical
Conditions in all cases: co-substrate ATP
mouse MAT2A [1] = target: T1, mouse MAT2A (Mus musculus, UniProt Q3THS6, Q113N/I117A)
T1 construct: recombinant, produced in vitro from bacterial cells; monogenic multimer without MAT2B
T1 sequence (Q3THS6 whole entry Q113N/I117A): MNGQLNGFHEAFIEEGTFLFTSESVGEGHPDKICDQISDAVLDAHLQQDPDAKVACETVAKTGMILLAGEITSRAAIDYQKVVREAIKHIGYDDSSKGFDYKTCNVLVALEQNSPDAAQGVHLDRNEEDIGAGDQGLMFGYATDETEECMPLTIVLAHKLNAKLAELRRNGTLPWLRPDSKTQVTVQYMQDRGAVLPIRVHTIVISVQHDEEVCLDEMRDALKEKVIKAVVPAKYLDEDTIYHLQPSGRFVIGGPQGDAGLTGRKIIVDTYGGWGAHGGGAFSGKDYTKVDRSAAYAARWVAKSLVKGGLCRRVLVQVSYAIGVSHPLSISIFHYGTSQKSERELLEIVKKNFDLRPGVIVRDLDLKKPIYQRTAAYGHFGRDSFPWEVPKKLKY
Source text: (§1) HPLC-MS/MS quantitation of accumulated cofactor, steady state on mouse MAT2A

mouse MAT2A [2] = target: T2, mouse MAT2A (Mus musculus, UniProt Q3THS6)
T2 construct: recombinant, produced in vitro from bacterial cells; monogenic multimer without MAT2B
T2 sequence (Q3THS6 whole entry): as the sequence (Q3THS6 whole entry Q113N/I117A) above, with N113Q, A117I counted along it
Source text: as §1

mouse MAT2A [3] = target: T3, mouse MAT2A (Mus musculus, UniProt Q3THS6, S114A/I117A)
T3 construct: recombinant, produced in vitro from bacterial cells; monogenic multimer without MAT2B
T3 sequence (Q3THS6 whole entry S114A/I117A): as the sequence (Q3THS6 whole entry Q113N/I117A) above, with N113Q, S114A counted along it
Source text: as §1

mouse MAT2A [4] = target: T4, mouse MAT2A (Mus musculus, UniProt Q3THS6, I117A)
T4 construct: recombinant, produced in vitro from bacterial cells; monogenic multimer without MAT2B
T4 sequence (Q3THS6 whole entry I117A): as the sequence (Q3THS6 whole entry Q113N/I117A) above, with N113Q counted along it
Source text: as §1

| SMILES | Km (mouse MAT2A [1]; read-out: Km /) | Km (mouse MAT2A [2]; read-out: Km /) | Km (mouse MAT2A [3]; read-out: Km /) | Km (mouse MAT2A [4]; read-out: Km /) | Km (mouse MAT2A [1]; read-out: Km / mM) | Km (mouse MAT2A [2]; read-out: Km / mM) | Km (mouse MAT2A [3]; read-out: Km / mM) | Km (mouse MAT2A [4]; read-out: Km / mM) |
| --- | --- | --- | --- | --- | --- | --- | --- | --- |
| CSCC[C@H](N)C(=O)O [Met, L-methionine] | 1.4 ± 0.56 mM | 0.02 ± 0.003 mM | 1.4 ± 0.41 mM | 0.645 ± 0.023 mM |  |  |  |  |
| [N-]=[N+]=NCCCC#CCSCC[C@H](N)C(=O)O [N3-Met, S-(6-azidohex-2-yn-1-yl)-L-homocysteine] |  |  |  |  | 1.44 ± 0.27 mM | 1.03 ± 0.23 mM | 1.52 ± 0.043 mM | 0.92 ± 0.1 mM |
